What all share (assay type): cell-based
The test system of one assay is Pseudomonas aeruginosa. The assay can be described thus: Challenge test (European Pharmacopoeia 10th Edition, Chapter 5.1.3) in leave-on O/W-cream gel. Conditions: for Challenge test result Pseudomonas aeruginosa: Example 2B, CHA 0.1%, Velsan SC 0.9%, Velsan CGE 0.9%; for Challenge test result P.a.: Example 2A, Velsan Flex 1.35%, CHA 0.15%. Further details: key: An A-criteria is related to an excellent protection of a formulation; B-criteria is needed to show sufficient protection but additional risk eliminating measures related to packaging and raw material quality need to be applied; With an F-criteria for any of the organism tested the whole challenge test is failed and the preservation/protection of the formulation is not sufficient. The source says: (§1) Following examples show challenge test results that were done according to EUROPEAN PHARMACOPOEIA 10TH EDITION. Chapter 5.1.3. As representative microorganisms the following test germs were used: Pseudomonas aeruginosa (gram-negative organism, short “P.a.”), Staphylococcus aureus (gram-positive organism, short “S.a.”), Escherichia coli (gram negative organism, short “E.c.”), Candida albicans (yeast, short “C.a.”) and Aspergillus brasiliensis (mold, short “A.b.”).
(§2) The A criteria express the recommended efficacy to be achieved. In justified cases where the A criteria cannot be attained, for example for reasons of an increased risk of adverse reactions, the B criteria must be satisfied. An A-criteria is related to an excellent protection of a formulation, B-criteria is needed to show sufficient protection but additional risk eliminating measures related to packaging and raw material quality need to be applied. With an F-criteria for any of the organism tested the whole challenge test is failed and the preservation/protection of the formulation is not sufficient.
(§3) As a reference an unpreserved sample of the respective formulation was tested as well.
(§4) As a test system a difficult to preserve formulation was used: […]
(§5) As a Test System the Following Formulation was Used: […]

Another assay deals with Staphylococcus aureus. The description is as above. Further details: key: An A-criteria is related to an excellent protection of a formulation; B-criteria is needed to show sufficient protection but additional risk eliminating measures related to packaging and raw material quality need to be applied; With an F-criteria for any of the organism tested the whole challenge test is failed and the preservation/protection of the formulation is not sufficient. The conditions noted are these: for Challenge test result Staphylococcus aureus: Example 2B, CHA 0.1%, Velsan SC 0.9%, Velsan CGE 0.9%; for Challenge test result S.a.: Example 2A, Velsan Flex 1.35%, CHA 0.15%.
Text: as §1, §2, §3, §4, §5

A further assay relates to Escherichia coli. Described as above. Further details: key: An A-criteria is related to an excellent protection of a formulation; B-criteria is needed to show sufficient protection but additional risk eliminating measures related to packaging and raw material quality need to be applied; With an F-criteria for any of the organism tested the whole challenge test is failed and the preservation/protection of the formulation is not sufficient. The conditions noted are these: for Challenge test result Escherichia coli: Example 2B, CHA 0.1%, Velsan SC 0.9%, Velsan CGE 0.9%; for Challenge test result E.c.: Example 2A, Velsan Flex 1.35%, CHA 0.15%.
Text: as §1, §2, §3, §4, §5

The test system of the next assay is Aspergillus brasiliensis. Described as above. Further details: key: An A-criteria is related to an excellent protection of a formulation; B-criteria is needed to show sufficient protection but additional risk eliminating measures related to packaging and raw material quality need to be applied; With an F-criteria for any of the organism tested the whole challenge test is failed and the preservation/protection of the formulation is not sufficient. Conditions: for Challenge test result Aspergillus brasiliensis: Example 2B, CHA 0.1%, Velsan SC 0.9%, Velsan CGE 0.9%; for Challenge test result A.b.: Example 2A, Velsan Flex 1.35%, CHA 0.15%.
Text: as §1, §2, §3, §4, §5

A further assay relates to Candida albicans. The description is as above. Set-up: key: An A-criteria is related to an excellent protection of a formulation; B-criteria is needed to show sufficient protection but additional risk eliminating measures related to packaging and raw material quality need to be applied; With an F-criteria for any of the organism tested the whole challenge test is failed and the preservation/protection of the formulation is not sufficient. The conditions noted are these: for Challenge test result Candida albicans: Example 2B, CHA 0.1%, Velsan SC 0.9%, Velsan CGE 0.9%; for Challenge test result C.a.: Example 2A, Velsan Flex 1.35%, CHA 0.15%.
Text: as §1, §2, §3, §4, §5

Assay [1] deals with Pseudomonas aeruginosa, Staphylococcus aureus, Escherichia coli, Candida albicans and Aspergillus brasiliensis. Nature of the assay: Challenge test, overall result over all test germs. Further details: key: An A-criteria is related to an excellent protection of a formulation; B-criteria is needed to show sufficient protection but additional risk eliminating measures related to packaging and raw material quality need to be applied; With an F-criteria for any of the organism tested the whole challenge test is failed and the preservation/protection of the formulation is not sufficient. The conditions noted are these: for Challenge test Overall result: Example 2B, CHA 0.1%, Velsan SC 0.9%, Velsan CGE 0.9%.
Text: as §1, §2, §3, §4, §5

Assay [2] deals with Escherichia coli (B) DSM 682. The assay can be described thus: Minimum inhibitory concentration (MIC), agar dilution. The conditions noted are these: DSM682, Caso-Agar, pH 7 (+/−0.2). Here is the method: (§6) The antimicrobial properties of Velsan Flex, CHA and a combination of both against bacteria, yeast and mold were investigated: For testing the inhibition of bacteria, Velsan Flex, CHA or a combination of both was diluted in 1,2-propanediol and added in different concentrations to liquid Caso-Agar at 50° C. and was buffered to pH 7 (+/−0.2). For testing the inhibition of yeast and mold, Velsan Flex, CHA or a combination of both was diluted in 1,2-propanediol and added in different concentrations to liquid Sabouraud-4% Dextrose-Agar at 50° C. and was buffered to pH 5.6 (+/−0.2). Each of the solutions was poured into a petri-dish and inoculated with the same amount of bacteria, yeast or mold respectively. The minimum inhibitory concentration (MIC) is the lowest concentration of the respective composition that inhibits the growth of the respective microorganism where the next lowest dilution fails to inhibit the growth of said microorganism. The experiments were carried out in scientifically fair conditions so that a proper comparison could be made and conclusions drawn.

The test system of assay [3] is Staphylococcus aureus (B) DSM 799. The description is as above. The conditions noted are these: DSM799, Caso-Agar, pH 7 (+/−0.2). Here is the method: as §6
Assay [4] deals with Klebsiella pneumoniae (B) DSM 786. The description is as above. The conditions noted are these: DSM786, Caso-Agar, pH 7 (+/−0.2). As for the experimental part:
as §6

Assay [5] relates to Aspergillus terreus (M) IMI 45543. The description is as above. The conditions noted are these: Sabouraud-4% Dextrose-Agar, pH 5.6 (+/−0.2). As for the experimental part: as §6
Assay [6] has as its system Serratia marcescens (B) BAM 491. Described as above. Conditions: Caso-Agar, pH 7 (+/−0.2). Here is the method:
as §6

The subject of assay [7] is Burkholderia cepacia (B) DSM 7288. The description is as above. The conditions noted are these: DSM7288, Caso-Agar, pH 7 (+/−0.2). As for the experimental part: as §6
In assay [8] the test system is Enterobacter aerogenes (B) NCIMB 10102. The assay is described as above. Conditions: Klebsiella aerogenes, NCIMB10102; Caso-Agar, pH 7 (+/−0.2). As for the experimental part:
as §6

In assay [9] the test system is Candida albicans (Y) DSM 1386. Described as above. The conditions noted are these: DSM1386, Sabouraud-4% Dextrose-Agar, pH 5.6 (+/−0.2). As for the experimental part:
as §6

In assay [10] the test system is Aspergillus brasiliensis (M) DSM 1988. The description is as above. Conditions: DSM1988, Sabouraud-4% Dextrose-Agar, pH 5.6 (+/−0.2). As for the experimental part:
as §6

Assay [11] concerns Candida parapsilosis (Y) DSM 5784. The assay is described as above. The conditions noted are these: Lodderomyces parapsilosis, DSM5784; Sabouraud-4% Dextrose-Agar, pH 5.6 (+/−0.2). As for the experimental part:
as §6

In assay [12] the test system is Pseudomonas aeruginosa (B) DSM 1128. The description is as above. Conditions: DSM1128, Caso-Agar, pH 7 (+/−0.2). As for the experimental part:
as §6

As usually defined, the MIC is the smallest concentration in the dilution series that meets the test's criterion for growth inhibition.

For Sorbitan caprylate [Velsan SC], the “Challenge test result Pseudomonas aeruginosa” value in the assay on Pseudomonas aeruginosa (pH 5) and with Pseudomonas aeruginosa (pH 7) was “F” in each case. Further, the “Challenge test result Staphylococcus aureus” value in the assay on Staphylococcus aureus (pH 5) and in the assay on Staphylococcus aureus (pH 7) was “A” each time. Besides, the “Challenge test result Escherichia coli” value is “A” in the assay on Escherichia coli (pH 5) and “B” with Escherichia coli (pH 7). Besides, the “Challenge test result Aspergillus brasiliensis” value with Aspergillus brasiliensis (pH 5) and in the assay on Aspergillus brasiliensis (pH 7) was “F” in each case. Moreover, the “Challenge test result Candida albicans” value in the assay with Candida albicans (pH 5) and in the assay on Candida albicans (pH 7) was “B” each time. In addition, the “Challenge test Overall result” value in assay [1] (pH 5) and in assay [1] (pH 7) was “F” in each case.

Turning to `CCCCCCCC(=O)NO` [CHA, Caprylhydroxamic acid], the “Challenge test result P.a.” value in the assay with Pseudomonas aeruginosa (pH 5) and in the assay on Pseudomonas aeruginosa (pH 7) was “A” each time. The “Challenge test result Pseudomonas aeruginosa” value in the assay on Pseudomonas aeruginosa (pH 5) and in the assay with Pseudomonas aeruginosa (pH 7) was “A” each time. In addition, the figures for the “Challenge test result S.a.” value with Staphylococcus aureus (pH 5) and in the assay on Staphylococcus aureus (pH 7) were “A” and “B”, respectively. The figures for the “Challenge test result Staphylococcus aureus” value in the assay on Staphylococcus aureus (pH 5) and in the assay with Staphylococcus aureus (pH 7) were “A” and “F”, respectively. In addition, the “Challenge test result E.c.” value with Escherichia coli (pH 5) and with Escherichia coli (pH 7) was “B” in each case. Further, the “Challenge test result Escherichia coli” value with Escherichia coli (pH 5) and with Escherichia coli (pH 7) was “B” in each case. Moreover, the “Challenge test result A.b.” value in the assay with Aspergillus brasiliensis (pH 5) and in the assay with Aspergillus brasiliensis (pH 7) was “A” in each case. In addition, the “Challenge test result Aspergillus brasiliensis” value with Aspergillus brasiliensis (pH 5) is given as “B”; with Aspergillus brasiliensis (pH 7), “A”. Besides, the “Challenge test result C.a.” value in the assay on Candida albicans (pH 5) and in the assay on Candida albicans (pH 7) was “A” in each case. Besides, the “Challenge test result Candida albicans” value with Candida albicans (pH 5) and in the assay with Candida albicans (pH 7) was “A” throughout. Also, the “Challenge test, criteria obtained over all test organisms” value in assay [1] (Example 2A, pH 5, Velsan Flex 1.35%, CHA 0.15%) was “B”. Further, the “Challenge test Overall result” value in assay [1] (pH 5) is given as “B”; in assay [1] (pH 7), “F”.

Turning to `CCCCCCCC(=O)NO` [10% CHA solution, Caprylhydroxamic acid], the MIC in [2] was found to be 5000 µg/mL; in assay [3], 8000 µg/mL; in assay [4], 3000 µg/mL; in assay [5] it was 2000 µg/mL; in assay [6], 4000 µg/mL; in assay [7], 3000 µg/mL. The MIC in assay [8] was determined as 6000 µg/mL; in assay [9] it was 2000 µg/mL; in [10], 3000 µg/mL; in [11], 2000 µg/mL; in assay [12], 8000 µg/mL.

These data come from patent publication US20260000076A1, “ANTIMICROBIAL COMBINATIONS” (Clariant International Ltd, priority 2022, published 2026).
